From patent publication US20180289702A1, “LPA LEVEL REDUCTION FOR TREATING CENTRAL NERVOUS SYSTEM DISORDERS” (priority 2015, published 2018)

Assays:
[1] = system: neuronal hyperexcitability induced by Ketamine; assay: ketamine-induced potentiation of evoked local field potentials (LFPs); assay type: cell-based, mice
Description: This aim was to unravel whether ATX-inhibition is able to revert cortical hyperexcitability and an altered E/I balance independent of the underlying cause. As previously described (Nosyreva E et al. 2013), ketamine application inhibits spontaneous neurotransmission and induces afterwards a potentiation of synaptic responses over time (FIG. 8A).

PRG-1+/− mice [2] = assay: double-pulse whisker stimulation model of sensory gating; assay type: in vivo; details: animals with monoallelic PRG-1-deficiency, ISI 500 ms
Description: In addition to analysis of spontaneous cortical network activity, the inventors assessed pre-attentive cortical information processing and measured sensory gating in a double-pulse whisker stimulation model (FIG. 4A). Local field potentials (recorded in the whisker-specific cortical barrel) in response to repetitive single-whisker stimulation elicited larger amplitudes to second stimulus in PRG-1^+/− when compared to wt (S1; S2; ISI=500 ms; FIG. 4B). […] These findings indicate that already loss of one functional allele of prg-1 as present in mutPRG-1 carriers, and thus a reduction of about 50% of functional PRG-1 at the synapse, causes an apparent E/I-imbalance in cortical networks and an altered sensory gating.

PRG-1 het mice = assay: mEPSC recordings with HA-130; assay type: cell-based
PRG-1+/− mice [3] = assay: spontaneous postsynaptic currents (sPSC) with HA130; assay type: cell-based
PRG-1+/− mice [4] = assay: in vivo multi-unit activity (MUA) recordings in S1BF cortex; details: 1 μM applied into the cortex of living PRG-1+/− mice
Description: In order to characterize the role of PRG-1 in cortical networks, the inventors then assessed expression of PRG-1 in the cerebral cortex and found strong expression in layer IV of the mouse somatosensory barrel field cortex (FIG. 3A) which was restricted to glutamatergic neurons. […] To understand implications of such a reduced synaptic PRG-1 function in intracortical information processing, the inventors performed multi-channel extracellular recordings in the S1BF cortex of wt and PRG-1^+/- mice in vivo (FIG. 3D). […] This finding points to a change in the cellular E/I balance towards excitation within cortical microcircuitries which has been related to severe behavioral deficits (Yizhar et al., 2011).

Compound: O=C1S/C(=C\c2ccc(OCc3cccc(B(O)O)c3)cc2)C(=O)N1Cc1ccc(F)cc1 [HA130, (Z)-3-((4-((3-(4-Fluorobenzyl)-2,4-dioxo-1,3-thiazolan-5-yliden)-methyl)phenoxy)methyl)benzeneboronic acid]
- ketamine-induced potentiation (evoked LFPs) ([1]; 10 μM during ketamine wash out / potentiation phase): significantly decreased
- ketamine-induced potentiation, input-output curves ([1]; after HA-130 treatment): reverted to baseline values
- S2/S1-ratio (PRG-1+/− mice [2]): reduced
- sensory gating (PRG-1+/− mice [2]): significantly restored
- mEPSCs (spontaneous glutamatergic release at presynaptic terminals) (PRG-1 het mice; 10 μM (FIG. 12B), genotype not stated in the panel legend): decreased
- mEPSCs (PRG-1 het mice; 10 μM, PRG-1 het mice (FIG. 12A)): decreased
- spontaneous postsynaptic currents (sPSC) (PRG-1+/− mice [3]; 1 μM): significant decrease
- spontaneous postsynaptic currents (sPSC) (PRG-1+/− mice [3]; 10 μM): significant decrease
- number of multi-unit activity (MUA) bursts (PRG-1+/− mice [4]): significantly decreased
